In ChEMBL document CHEMBL1137612, “Furan based cyclic oligopeptides selectively target G-quadruplex” (J Med Chem, 2007):
Calls of active or inactive are those of the source. The calls are words filed in the database; no cut-off is given here.

Tests used:
Homo sapiens [1] = organism: Homo sapiens; experiment: Inhibition of telomerase extension activity at 50 uM by PCR based TRAP assay
[2] = Cell cycle arrest in […] cells assessed as accumulation at Sub G1 phase at 75 uM; type: functional, cell-based; details: Homo sapiens
[3] = Cytotoxicity against […] cells by MTT assay; type: functional, cell-based; details: Homo sapiens
[4] = Cell cycle arrest in […] cells assessed as accumulation at G1 phase at 75 uM; type: functional, cell-based; details: Homo sapiens
[5] = Cell cycle arrest in […] cells assessed as accumulation at S phase at 75 uM; type: functional, cell-based; details: Homo sapiens
[6] = Cell cycle arrest in […] cells assessed as accumulation at G2/M phase at 75 uM; type: functional, cell-based; details: Homo sapiens
[7] = Cell cycle arrest in […] cells assessed as accumulation at Sub G1 phase at 300 uM; type: functional, cell-based; details: Homo sapiens
[8] = Cell cycle arrest in […] cells assessed as accumulation at G1 phase at 300 uM; type: functional, cell-based; details: Homo sapiens
[9] = Cell cycle arrest in […] cells assessed as accumulation at S phase at 300 uM; type: functional, cell-based; details: Homo sapiens
[10] = Cell cycle arrest in […] cells assessed as accumulation at G2/M phase at 300 uM; type: functional, cell-based; details: Homo sapiens
[11] = Binding affinity to human telomeric DNA
Homo sapiens [12] = organism: Homo sapiens; experiment: Stabilization effect on human telomeric DNA assessed as differential melting temperature by FRET assay
Homo sapiens [13] = organism: Homo sapiens; experiment: Stabilization effect on human telomeric DNA assessed as differential melting temperature in the presence of double strand DNA by FRET assay
Homo sapiens [14] = organism: Homo sapiens; experiment: Stabilization effect on human telomeric DNA assessed as differential melting temperature by DSC assay
[15] = Binding affinity to hairpin DNA; parameters: species or system Homo sapiens

Structure (SMILES): NCCC(=O)NCC1=C2CNC(=O)C3=CC=C(CNC(=O)c4cc(CNC(=O)CCN)c(o4)CNC(=O)C4=CC=C(CNC(=O)C(=C1)O2)O4)O3
- Activity (Homo sapiens [1]): Active
- Activity [2]: 46%
- IC50 [3]: 500 µM
- Activity [4]: 31.5%
- Activity [5]: 7%
- Activity [6]: 11.5%
- Activity [7]: 48.5%
- Activity [8]: 41.4%
- Activity [9]: 4.2%
- Activity [10]: 4.8%
- Kd [11]: 3.1 µM
- ΔTm (Homo sapiens [12]): 17 °C
- ΔTm (Homo sapiens [13]): 17 °C
- ΔTm (Homo sapiens [14]): 9.2 °C

Structure (SMILES): NCCC(=O)NCc1cc2oc1CNC(=O)C1=CC=C(CNC(=O)C3=CC=C(CNC2=O)O3)O1
- Kd [11]: 21 µM
- Kd [15]: 700 µM
- ΔTm (Homo sapiens [12]): 10 °C
- ΔTm (Homo sapiens [13]): 7 °C
- ΔTm (Homo sapiens [14]): 3 °C

Structure (SMILES): NCC1=C2CNC(=O)C3=CC=C(CNC(=O)c4cc(CN)c(o4)CNC(=O)C4=CC=C(CNC(=O)C(=C1)O2)O4)O3
- Activity (Homo sapiens [1]): Active
- Activity [2]: 47%
- IC50 [3]: 500 µM
- Activity [4]: 23.5%
- Activity [5]: 8.8%
- Activity [6]: 18.8%
- Activity [7]: 49%
- Activity [8]: 39%
- Activity [9]: 4.8%
- Activity [10]: 5.5%
- Kd [11]: 14.5 µM
- ΔTm (Homo sapiens [12]): 12 °C
- ΔTm (Homo sapiens [13]): 12 °C
- ΔTm (Homo sapiens [14]): 6.6 °C

Structure (SMILES): NCc1cc2oc1CNC(=O)C1=CC=C(CNC(=O)C3=CC=C(CNC2=O)O3)O1
- Kd [11]: 29 µM
- Kd [15]: 950 µM
- ΔTm (Homo sapiens [12]): 9 °C
- ΔTm (Homo sapiens [13]): 7 °C
- ΔTm (Homo sapiens [14]): 2 °C
